Source: patent US20110082148A1, “TREATING, PREVENTING OR AMELIORATING A HYPERPROLIFERATIVE DISEASE/DISORDER” (priority 2009, published 2011)

Key:
[1] = tested on: National Cancer Institute 60 cell line; assay: National Cancer Institute 60 cell line one dose test; assay type: cell-based; details: NCI 60 cell line, across many cell lines
Protocol: FIG. 1 illustrates a National Cancer Institute 60 cell line one dose mean graph for erdosteine. […] A National Cancer Institute 60 cell line test was performed using erdosteine. FIG. 1 illustrates the effectiveness of the erdosteine at inhibiting cancer cell growth in several cell lines. […] A National Cancer Institute 60 cell line test was performed using cinoxacin. FIG. 2 illustrates the effectiveness of the cinoxacin at inhibiting cancer cell growth in several cell lines is shown.

[2] = Administration to mice, adverse side effects; assay type: in vivo; details: from about 25 mg/kg to about 15 mg/kg
Description: However, in any given case, the amount of the compound administered will depend on such factors as the solubility of the active component, the formulation used, subject condition (such as weight), and/or the route of administration.

HL60 xenograft = assay type: in vivo
Protocol: FIG. 4(b) illustrates the tumor volume growth of HL60 xenograft over time after treatment with cinoxacin in dosages of 100 mg/kg and 300 mg/kg as compared to control sample.
FIGS. 4(a) and (b) show the tumor volume growth of an HL60 xenograft over time after treatment with cinoxacin in different dosages as compared to a control sample. The cinoxacin was obtained from Signma Aldrich (MOL_ID—1), and solubilized in […] and phosphate buffered saline and administered […] to test mice. […] The treatment regimen was implemented as 3 day+3 day, with an ip single injection each day. Tumor volume was measured by ruler. […] The mice were provided a single dose daily for ten consecutive days. […] It is believed that higher dosages could also be used without incurring detrimental effects.

[3] = tested on: RPMI-8226-luc human myeloma xenografts; assay: RPMI-8226-luc human myeloma xenografts in NSG mice, survival; assay type: in vivo, NOD scid gamma (NSG) mice; details: for survival time: controls all died before 20 days
Description: FIG. 5(a) illustrates the photons/sec/cm^2×10^−6 present over time in RPMI-8226-luc human myeloma xenografts in NSG mice.
FIG. 5(b) illustrates the percentage of male and female mice survival over time when provided varying dosage amounts of cinoxacin as compared to a control sample.
FIG. 5(b) illustrates the survival percentage of male and female mice when treated with various dosages of cinoxacin for a period of 10 to 40 days. FIGS. 5(a) and (b) display that the controls all died before 20 days had passed. The females died around 25 days; however, all the males survived for 40 days when treatment was stopped. […] By the time the drug was administered, the concentration of myeloma cells in female mice had reached about 9×10^6, which appears to be beyond repair.

SMILES | cell growth compared with control specimen [1] | adverse side effects [2] | tumor volume increase (HL60 xenograft; FIG. 4(a), 100 mg/kg compared to 25 mg/kg and 50 mg/kg, 3 day+3 day, single injection each day) | growth of Leukemic cells (tumor volume growth) (HL60 xenograft; FIG. 4(b), 100 mg/kg and 300 mg/kg vs control, single dose daily for ten consecutive days, particularly at 200 mg/kg) | survival time ([3]; female mice treated with cinoxacin) | survival time ([3]; male mice treated with cinoxacin, treatment stopped at 40 days) | survival compared to female mice and controls ([3]; male mice, 1500 mg/kg/day)
O=C(O)CSCC(=O)NC1CCSC1=O (stereo not drawn) [erdosteine] | lower than in a control specimen | without adverse side effects | – | – | – | – | –
CCn1nc(C(=O)O)c(=O)c2cc3c(cc21)OCO3 [cinoxacin] | lower than in a control specimen | without adverse side effects | slower tumor volume increase | substantial slowing down of the growth of Leukemic cells | around 25 days | ≥ 40 days | survival was prolonged
